Results on two compounds are retold here after US20040167217A1, “Neuroprotective effects of polyphenolic compounds” (priority 2003, published 2004).

Molecules are shown by their SMILES.

Holding throughout (assay type): cell-based, rat
For series [1], the system named is cerebellar granule cells. Kind of series: Oligonucleosome formation (cell death detection ELISA), low K+. The note with it: for apoptosis (oligonucleosome formation) induced by low extracellular K+: curcumin 1, 5, 10, 25 and 50 μM. The procedure:
Primary cultures of cortical neurons and cerebellar granule cells were prepared. In brief, cortical neurons were prepared from fetal brain from 17-day pregnant rat and cerebellar granule cells from 8-day old rats. Brain tissues were dissociated through trypsinization in 0.025% trypsin solution and trituration. Dissociated cells were collected through centrifugation and resuspended in standard medium containing: basal Eagle's medium containing 10% fetal bovine serum (FCS), 2 mM glutamine, genatmycin 0.05 mg/ml, and 25 mM KCI. Cells were plated at a density of 1.8×10^6 onto 35-mm dishes coated with 10 micrograms/ml ply-L-lysine.
To induce programmed cell death in […] granule cells, two different experimental well-established paradigms: serum deprivation and low K^+, were performed. In particular, neurons were cultured after their plating in serum free medium containing 25 mM KCI or in standard medium for 6 days and then agitating them in a medium containing 10% FCS and 5 mM KCI. In both of these paradigms, control cells were grown in medium containing 10% FCS and 25 mM KCI.
To induce apoptosis in cortical neurons, β-amyloid peptide (1-40), a molecule related to the pathogenesis of Alzheimer disease and a well known inducer of apoptosis was added.
(In general: An ELISA detects its analyte on a solid surface through an enzyme-linked reagent.)

The subject of series [2] is heme oxygenase. Kind of series: Heme oxygenase activity assay in cortical neurons. The procedure: The ability of curcumin to interact with the heme oxygenase (HO) pathway in primary cortical neurons was tested. Cells were exposed to various concentrations of curcumin (1-100 μM) and heme oxygenase activity. HO-1 mRNA and protein expression were determined at different times after treatment. N-acetyl cysteine (NAC; 1 mM), a precursor of glutathione and a sulphydril donor with potent anti-oxidant properties, was also used to examine whether changes in heme oxygenase activity by curcumin are mediated by pro-oxidant mechanisms. Heme oxygenase activity assays were performed using a modified methodology previously described by […], et al.^15 Cells were washed with PBS, scraped off their plates, separated by centrifugation, and resuspended in a solution containing 100 mM PBS and 2mM MgCl2, freeze/thawed three times, and finally sonicated. The supernatant was added to a reaction mixture containing nicotinamide adenine dinucleotide phosphate (NADPH) (0.8 mM), glucose 6-phosphate (2 mM), glucose-6-phosphate dehydrogenase (0.2 units), 3 mg of rat liver cytosol prepared from a 105,000×g supernatant fraction as a source of biliverdin reductase, potassium phosphate buffer (PBS, 100 mM, pH 7.4), MgCl2 (0.2 mM), and hemin (20 μM). The reaction was conducted at 37° C. in the dark for 1 h and terminated by the addition of 1 ml of chloroform. The amount of extracted bilirubin was calculated by the difference in absorbance between 464 nm and 530 nm (ε=40 mM^-1 cm^-1). Heme oxygenase activity was expressed as picomoles of bilirubin/mg of cell protein/h. The total protein content of confluent cells was determined using a Bio-Rad DC protein assay (Bio-Rad; Herts, UK) by comparison with a standard curve obtained with bovine serum albumin.

Series [3] relates to cortical neurons. Nature of the series: Glucose oxidase (GOX)-mediated cellular injury, Alamar blue cell viability. How it is done: To better assess the neuroprotective activity of curcumin, cell viability was determined for cortical neurons treated with 25 μM curcumin for 12 h followed by incubation for 2 h in the presence of glucose oxidase (100 mU/ml). This oxidant system generates hydrogen peroxide at a constant rate and is known to promote cellular injury in vitro^14. After treatment with glucose oxidase, cells were washed and exposed to complete medium containing 1% Alamar blue for 5 h according to manufacturers' instruction (Serotec, UK), in order to assess cell viability. After the 2 h incubation period, optical density in the medium of each well was measured using a plate reader (Molecular Devices; Crawley, UK). The assay is based on detection of metabolic activity of living cells using a redox indicator, which changes from oxidized (blue) to reduced (red) form. The intensity of the red color is proportional to the viability of cells, which is calculated as a difference in absorbance between 570 nm and 600 nm and expressed as a percentage of control. […] However, exposure of cells for 24 h to curcumin 25 μM reduced glucose oxidase-mediated damage and restored cell viability to 70% of control.
An inhibitor of HO-1 activity may be used to determine whether or not the effects of the polyphenolic compounds or analogs thereof are induced through the heme oxygenase signaling pathway. To understand the relevance of the induction of the stress protein HO-1 on the neuroprotective effects afforded by curcumin we treated cortical neuron exposed to β-amyloid with curcumin ([…]) alone or in the presence of tinprotoporphirine IX (SnPP) 40 μM, a specific inhibitor of HO-1 activity. The same treatment was performed in cortical neurons exposed to GOX-induced cellular damage.

Series [4] deals with HO-1 mRNA. Kind of series: HO-1 mRNA expression, semi-quantitative RT-PCR, cortical neurons. How it is done: A semi-quantitative RT-PCR was performed to investigate the activity of curcumin on HO-1 mRNA expression, using specific HO-1 primers (FIG. 8) that generated a 123 bp product. […] The HO-2 primers generated a 331-bp PCR product. […] In order to test the effects of polyphenolic compounds, or analogs thereof, on heme oxygenase activity, curcumin and CAPE were added to cortical neurons for analysis. Heme oxygenase activities resulting from curcumin and CAPE treatment are shown in FIGS. 7A and 9A, respectively. Neuroprotective protein expression is observed in FIGS. 7B-C and 9B. The activity of curcumin on HO-1 mRNA expression may be measured to ensure that heme oxygenase activity correlates with mRNA expression (FIG. 8). Semi-quantitative reverse transcriptase-polymerase chain reaction using HO-1 and HO-2 (control) forward and reverse primers are as follows: […]

Series [5] concerns hsp70. Kind of series: hsp70 protein expression, Western blot, cortical neurons. How it is done:
HO-1 and hsp70 protein levels were assessed by Western immunoblot technique using a polyclonal rabbit anti-HO-1 antibody (Stressgen; Victoria, Canada), and a polyclonal rabbit hsp70 antibody. Briefly, an equal amount of proteins (30 μg) for each sample was separated by SDS-polyacrylamide gel electrophoresis and transferred to nitrocellulose membranes, and the non-specific antibodies were blocked with 3% non-fat dried milk in PBS. Membranes were then probed with a polyclonal rabbit anti HO-1 antibody (Stressgen) (1:1000 dilution in Tris-buffered saline, pH 7,4) or with a monoclonal rabbit anti-Hsp72 antibody (Amersham Pharmacia Biotechnology) (1:1000 dilution in Tris-buffered saline, pH 7,4), that recognizes only the Hsp 70 inducible isoform. Blots were then visualized using an amplified alkaline phosphate kit from Sigma.
Background: A western blot detects proteins with antibodies after separation by electrophoresis.

In the case of `O=C(/C=C/c1ccc(O)c(O)c1)OCCc1ccccc1` [CAPE, Caffeic acid phenethyl ester], in series [1], the “concentration with strongest / most effective anti-apoptotic effect” value stood at 25 µM and the “apoptosis (oligonucleosome formation) induced by low extracellular K+” value is given as “strong dose-dependent anti-apoptotic effect”.

On to `COc1cc(C=CC(=O)CC(=O)C=Cc2ccc(O)c(OC)c2)ccc1O` [curcumin, 1,7-bis[4-Hydroxy-3-methoxyphenyl]-1,6-heptadiene-3,5-dione], for which, in series [2] (25 μM, 6h), the “maximal heme oxygenase activity, increase over control” value is listed as 10 fold. Moreover, in series [2] (50 μM), the heme oxygenase activity entry was “gradually decreased to those of control values”. Besides, the heme oxygenase activity result in series [2] (1-50 μM, 6h) is on record as “concentration-dependent increase in heme oxygenase activity”. Also, the “dose-dependent induction of heme oxygenase activity” value in series [2] (24h exposure) is listed as “maintained after 24h exposure”. Moreover, in series [1], the “concentration with strongest / most effective anti-apoptotic effect” value is 25 µM and the “apoptosis (oligonucleosome formation) induced by low extracellular K+” value is recorded as “significantly reduced apoptosis”. Moreover, in series [3] (25 μM, then glucose oxidase 100 mU/ml for 2 h), the “cell viability after glucose oxidase” value is listed as 70 % of control. Besides, the “cell viability, GOX-induced cellular damage (in words)” value in series [3] (curcumin alone) is listed as “able to overcome the apoptotic effects of GOX alone”. In series [3] (curcumin plus SnPP 40 μM), the “cell viability, GOX-induced cellular damage in the presence of SnPP” value is given as “only partially in combination with SnPP”. For the same compound, the “HO-1 mRNA expression” value in series [4] is recorded as “dose-dependent over-expression of HO-1 mRNA”. Also, in series [5], the hsp70 protein expression result is “induced hsp70 protein expression”.
